Test results from patent US6046238A, “Method for treating or preventing the spread of acne vulgaris” (TriStrata, Inc., priority 1999, dated 2000).
≈ marks a conversion by molar mass, not a printed value. Like-named read-outs stand apart in the source and are kept apart here.

Columns and labels:
Micrococcus luteus = assay: MIC Agar Dilution Test, Micrococcus luteus; type: cell-based; conditions: M. luteus
Excerpt: (§1) The following strains of microorganisms were used in Minimum Inhibitory Concentration (MIC) tests for phenyl 2-acetoxyethanoic acid in this example and for benzoyl peroxide, chlorhexidine gluconate and triclosan in the following examples. In total, five strains were used for S. aureus, five strains were used for S. epidermidis, two strains were used for M. sedentarius, three strains were used for M. luteus, two strains were used for B. epidermis, three strains were used for C. minutissium, one strain was used for S. marcescens, three strains were used for P. aeruginosa, four strains were used for E. coli, and thirty-two strains were used for P. acnes.
(§2) Antimicrobial effects were determined based on MIC Agar Dilution Test utilizing Trypticase Soy Agar II (BBL) incorporation plates with and without 10% intralipid (Kabi Pharmacia Inc.). Initially, phenyl 2-acetoxyethanoic acid was prepared as a 2 mg/ml (0.2%) solution in water. This solution with serial dilution was incorporated into the test agar plates. The MIC test gave similar results when the same species but a different strain was used.
(§3) Under the same test conditions described in Example 1, benzoyl peroxide was prepared as a 2.5 mg/ml (0.25%) solution in water. This solution with serial dilution was incorporated into the test agar plates. Typical test results are shown as follows.
(§4) Under the same test conditions described in Example 1, chlorhexidine gluconate was prepared as a 2 mg/ml (0.2%) solution in water. This solution with serial dilution was incorporated into the test agar plates. Typical test results are shown as follows.
(§5) Under the same test conditions described in Example 1, triclosan was prepared as a 10 mg/ml (1%) solution in water. This solution with serial dilution was incorporated into the test agar plates. Typical test results are shown as follows.
(§6) Ten different species of bacteria were used in Minimum Inhibitory Concentration (MIC) tests. The bacteria include S. aureus, S. epidermidis,M. sedentarius, M. luteus, B. epidermis, C. minutissium, S. marcescens, P. aeruginosa, E. coli, and P. acnes. In addition various sources and strains of these bacteria were also included in the tests, and up to 32 different strains of P. acnes were used.
(§7) The test substance selected from phenyl 2-acetoxyethanoic acid, benzoyl peroxide, chlorhexidine gluconate and triclosan was dissolved in water, and the solution with serial dilution was incorporated into the test agar plates. The plates containing different concentrations of test substance were inoculated with a strain of bacterium. MIC is defined as the lowest concentration of the test substance in the plate in which there is no growth of the microorganism.

[1] = tested on: ten different species of bacteria; assay: MIC Agar Dilution Test, panel of ten bacteria; type: cell-based; conditions: with or without 10% lipid materials
Excerpt: as §1, §2, §3, §4, §5
In order to determine the antimicrobial effect of an aryl 2-acetoxyethanoicacid, a standard test method of Minimum Inhibitory Concentration (MIC) against the growth of 10 bacteria was used. To determine a prophylactic effect against the development of, as well as a topical effect in the treatment of, body foul door, eleven human subjects participated in this study. More than twenty human subjects participated in a study to determine whether the compositions containing an aryl 2-acetoxyethanoic acid were therapeutically effective for topical treatment of folliculitis and other skin lesions, nail infections and mucosal infections caused by microbial infections. Scientific and test results are overviewed as follows.
as §6, §7

[2] = axillary antiodor effectiveness (treatment); type: in vivo, human; conditions: 0.5%
Excerpt: In another study the subjects were instructed not to take a shower in the morning. After the foul odor developed in both axillae, the subjects were instructed to apply the test composition containing 0.5% phenyl 2-acetoxyethanoic acid or diphenyl 2-acetoxyethanoic acid on the left underarm area and the control vehicle on the right underarm area. Topical applications were made once daily for several days.
Usually the left underarm ceased emanating any detectable foul odor after 1 day of topical use. The subjects were instructed at this time to apply the test composition containing 0.5% phenyl 2-acetoxyethanoic acid or diphenyl 2-acetoxyethanoic acid on the right underarm area also. Topical applications were made once daily for several days. The right axilla ceased to emanate any detectable foul odor after 1 to 2 days of topical use.

Escherichia coli = assay: MIC Agar Dilution Test, Escherichia coli; type: cell-based; conditions: E. coli
Excerpt: as §1, §2, §3, §4, §5, §6, §7

Serratia marcescens = assay: MIC Agar Dilution Test, Serratia marcescens; type: cell-based; conditions: S. marcescens
Excerpt: as §1, §2, §3, §4, §5, §6, §7

[3] = tested on: Staphylococcus epidermidis; assay: MIC Agar Dilution Test, Staphylococcus epidermidis; type: cell-based; conditions: S. epidermidis
Excerpt: as §1, §2, §3, §4, §5, §6, §7

[4] = reversal of corticosteroid unresponsiveness in psoriasis; type: in vivo, human; conditions: added once daily to corticosteroid twice daily; seven patients
Procedure: To determine the therapeutic responsive effect of an aryl 2-acetoxyethanoicacid against psoriasis seven patient participated in this study. A test composition was prepared by dissolving 1 g phenyl 2-acetoxyethanoic acid or diphenyl 2-acetoxyethanoic acid in 2 ml ethanol. The solution thus obtained was mixed with 60 g petrolatum and 37 g mineral oil. The anhydrous ointment thus formulated was packaged in one-ounce jars.
When the drug unresponsiveness to a corticosteroid occurred, the participating patients were instructed to apply in addition the test composition once daily to the lesions on the left side of the body only. Topical applications of the corticosteroid were continued twice daily to both sides of the body. […] While psoriatic lesions on the right side of the body remained unresponsive to the topical corticosteroid, the lesions on the left side started to clear after 3 to 4 weeks of additional topical application with the composition containing an aryl 2-acetoxyethanoic acid.
At this time the patients were instructed to shift the additional topical application to the lesions on the right side instead of the left side of the body. The psoriatic lesions on the right side of the body began to clear after 3 to 4 weeks of additional topical application with the composition containing aryl 2-acetoxyethanoic acid.

Propionibacterium acnes = assay: MIC Agar Dilution Test, Propionibacterium acnes; type: cell-based; conditions: for MIC: Cutibacterium acnes
Excerpt: as §1, §2, §3, §4, §5, §6, §7

[5] = topical treatment of folliculitis and perifolliculitis; type: in vivo, human; conditions: 0.9%, twice daily; nine patients
Procedure: Nine patients having various degrees of folliculitis and perifolliculitis participated in this study. A test composition containing 0.9% phenyl 2-acetoxyethanoic acid or diphenyl 2-acetoxyethanoic acid was prepared by dissolving 0.9 g compound in 79.1 ml 2-propanol, 15 ml butane-1,3-diol and 5 ml nonoxynol-6. The composition was packaged in one-ounce bottles. The patients were instructed to apply the test composition twice daily on the infected skin lesions and involved areas. Topical applications were continued up to 8 weeks.

[6] = tested on: Corynebacterium minutissium; assay: MIC Agar Dilution Test, Corynebacterium minutissium; type: cell-based; conditions: C. minutissium
Excerpt: as §1, §2, §3, §4, §5, §6, §7

[7] = 10% intralipid, read-out: MIC Lipid
[8] = no lipid, read-out: MIC No Lipid

In the case of `CC(=O)OC(C(=O)O)c1ccccc1` (centres unmarked) [phenyl 2-acetoxyethanoic acid], the MIC (Micrococcus luteus; [7]) was 1000 µg/mL (≈ 5.15 mM), the MIC (Micrococcus luteus; [8]) was 1000 µg/mL (≈ 5.15 mM) and the “inhibitory effects against the growth of all ten bacteria” value [1] was “had inhibitory effects against all of the above bacteria”. The “inhibitory effects against the growth of all ten bacteria” value ([1]; listed as Phenyl 2-acetoxyethanoic acid) was “showed inhibitory effects against the growth of all ten bacteria tested”, the “overall axillary antiodor effectiveness” value ([2]; topical) was “topically effective in eradicating the axillary foul odor” and the “left axilla on continued use” value ([2]; continued, once daily for several days) was “continued to maintain the condition free of any offensive foul odor”. The “time after which left underarm usually ceased emanating any detectable foul odor” value ([2]; no-shower study, left side) was 1 days, the “intensity of foul odor, left underarm” value ([2]; no-shower study, once daily) was “diminished in intensity of foul odor after one to two days of topical application” and the “time after which left underarm ceased emanating any detectable foul odor” value ([2]; Example 6, once daily, one person, left side) was 1 days. For the same compound, the “time after which right axilla ceased to emanate any detectable foul odor” value ([2]; Example 6, right side, formerly vehicle) was 1 days, the MIC (Escherichia coli; [7]) was 1000 µg/mL (≈ 5.15 mM) and the MIC (Escherichia coli; [8]) was 1000 µg/mL (≈ 5.15 mM). The MIC (Serratia marcescens; [7]) was 1000 µg/mL (≈ 5.15 mM), the MIC (Serratia marcescens; [8]) was 1000 µg/mL (≈ 5.15 mM) and the MIC [3, 7] was 1000 µg/mL (≈ 5.15 mM). For the same compound, the MIC [3, 8] was 1000 µg/mL (≈ 5.15 mM), the “onset of improvement of psoriatic lesions, left side” value [4] was “began to improve after one week” and the MIC (Propionibacterium acnes; P. acnes, 10% intralipid, read-out: MIC Lipid) was 250 µg/mL (≈ 1.29 mM). The MIC (Propionibacterium acnes; P. acnes, no lipid, read-out: MIC No Lipid) was 250 µg/mL (≈ 1.29 mM), the MIC (Propionibacterium acnes; even in the presence of 10% lipid materials, read-out: concentration specifically effective against the growth of P. acnes) was 250 µg/mL and the MIC (Propionibacterium acnes; in the presence of 10% lipid materials, read-out: concentration effective against P. acnes) was 250 µg/mL. For the same compound, the “inhibitory effect against P. acnes, compared” value (Propionibacterium acnes; with or without lipid materials, same test conditions as comparators) was “most active and effective compound against P. acnes”, the “deeper lesions of papules” value [5] was “eradicated or substantially improved after 4 to 8 weeks of topical applications” and the “superficial folliculitis and perifolliculitis lesions” value [5] was “eradicated or substantially improved after a few days of topical applications”. It also gave an MIC [6, 7] of 500 µg/mL (≈ 2.57 mM) and an MIC [6, 8] of 500 µg/mL (≈ 2.57 mM).
